Measured values taken from patent US20160228420A1, “POLYETHYLENE GLYCOL-CONTAINING COMPOSITION” (SANTEN PHARMACEUTICAL CO., LTD., priority 2013, published 2016).

Assays:
[1] = test system: VEGF induced retinal vascular permeability promotion; assay: VEGF induced rabbit retinal vascular permeability promotion model; type: in vivo; details: 0.5 mg/eye intravitreal in PEG 400; VEGF 2 months after administration; vitreous fluorescein 2 days after VEGF
Procedure: By using the VEGF induced rabbit retinal vascular permeability promotion model, usefulness of the polyethylene glycol 400 formulation of Compound A was evaluated. Incidentally, the VEGF has been reported to promote retinochoroidal vascular permeability by intravitreal administration (Invest Ophthalmol Vis Sci. 2013; 54(1):503-11.), and has generally been used for preparation of a pathological condition accompanied by retinal and choroidal vascular disorder (for example, diabetic retinopathy, diabetic macular edema, retinal vein occlusion, retinal artery occlusion, exudative age-related macular degeneration, etc.).
To 1.5 g of the present compound A was added 12 mL of polyethylene glycol 400 (NOF CORPORATION) and the mixture was stirred, and after confirming the dissolution thereof, a suitable amount of polyethylene glycol 400 was added to make the whole amount 15 mL. […]
After 2 days from the VEGF administration, 0.1 mL/kg of a 10% fluorescein solution was intravenously administered to rabbits. After 2 hours from administration of the fluorescein, the fluorescein concentration in the vitreous body was measured by fluorophotometry, and this was used as an index of the retinal vascular permeability.
Thereafter, according to Formula 1, an inhibition ratio (%) of the administered medicine to the retinal vascular permeability promotion caused by VEGF was calculated. […]

[2] = disclosed in Patent Document 2; cited from earlier work
[3] = repeated oral administration; disclosed in Patent Document 2; cited from earlier work

Structure (SMILES) | Inhibition ratio (%) (retinal vascular permeability) [1] | storage stability [2] | deposition of minerals in the stomach [3]
O=C(CO)Nc1cc(CSc2ncccc2C(=O)Nc2ccc(OC(F)(F)F)cc2)ccn1 [Compound A, 2-[[[2-[(hydroxyacetyl)amino]-4-pyridinyl]methyl]thio]-N-[4-(trifluoromethoxy)phenyl]-3-pyridinecaboxamide] | 95.3 |  | 
O=C(CO)Nc1cc(CSc2ncccc2C(=O)Nc2ccc(OC(F)(F)F)cc2)ccn1.O=S(=O)(O)c1ccccc1 [2-[[[2-[(hydroxyacetyl)amino]-4-pyridinyl]methyl]thio]-N-[4-(trifluoromethoxy)phenyl]-3-pyridinecaboxamide] |  | excellent | no deposition of minerals is recognized
